Source: patent US12421253B2 (Mirati Therapeutics, Inc., priority 2020, dated 2025)

Tests used:
KRas^WT = target: T1, KRas^WT (Homo sapiens, UniProt P01116); experiment: KRas binding assay (TR-FRET displacement of Cy5 labelled tracer)
T1 construct: […]; biotin (biotinylated); purchased Accelegan Inc

KRas^G12A = target: T2, KRas^G12A (Homo sapiens, UniProt P01116, G12A); experiment: as above
T2 construct: […]; biotin (biotinylated); purchased Accelegan Inc

KRas^G12D = target: T3, KRas^G12D (Homo sapiens, UniProt P01116, G12D); experiment: as above
T3 construct: […]; biotin (biotinylated); purchased Accelegan Inc

KRas^G12R = target: T4, KRas^G12R (Homo sapiens, UniProt P01116, G12R); experiment: as above
T4 construct: […]; biotin (biotinylated); purchased Accelegan Inc

KRas^G12S = target: T5, KRas^G12S (Homo sapiens, UniProt P01116, G12S); experiment: as above
T5 construct: […]; biotin (biotinylated); purchased Accelegan Inc

KRas^G12V = target: T6, KRas^G12V (Homo sapiens, UniProt P01116, G12V); experiment: as above
T6 construct: […]; biotin (biotinylated); purchased Accelegan Inc

KRas^G12C = KRas^G12C (Homo sapiens, UniProt P01116, G12C); experiment: biochemical
KRas^G13D = KRas^G13D (Homo sapiens, UniProt P01116, G13D); experiment: biochemical
KRas^Q61H = KRas^Q61H (Homo sapiens, UniProt P01116, Q61H); experiment: biochemical
Sequence of KRas^Q61H (P01116 1-169 isoform P01116-2 Q61H): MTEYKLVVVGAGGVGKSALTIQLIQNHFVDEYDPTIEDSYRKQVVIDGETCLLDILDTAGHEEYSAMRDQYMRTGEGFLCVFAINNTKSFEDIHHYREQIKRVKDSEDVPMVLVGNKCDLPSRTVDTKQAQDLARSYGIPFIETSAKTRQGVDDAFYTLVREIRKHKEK

T2 sequence (P01116 1-169 isoform P01116-2 G12A): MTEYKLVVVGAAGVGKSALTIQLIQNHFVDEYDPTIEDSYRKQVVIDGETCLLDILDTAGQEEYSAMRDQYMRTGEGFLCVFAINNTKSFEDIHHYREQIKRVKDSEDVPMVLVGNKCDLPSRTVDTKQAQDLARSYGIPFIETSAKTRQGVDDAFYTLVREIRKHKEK
T5 sequence (P01116 1-169 isoform P01116-2 G12S): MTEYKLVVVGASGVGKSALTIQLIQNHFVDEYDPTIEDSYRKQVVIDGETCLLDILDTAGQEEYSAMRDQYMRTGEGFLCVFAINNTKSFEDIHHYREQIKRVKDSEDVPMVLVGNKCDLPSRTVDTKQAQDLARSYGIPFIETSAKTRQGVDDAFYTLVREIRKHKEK
T3 sequence (P01116 1-169 isoform P01116-2 G12D): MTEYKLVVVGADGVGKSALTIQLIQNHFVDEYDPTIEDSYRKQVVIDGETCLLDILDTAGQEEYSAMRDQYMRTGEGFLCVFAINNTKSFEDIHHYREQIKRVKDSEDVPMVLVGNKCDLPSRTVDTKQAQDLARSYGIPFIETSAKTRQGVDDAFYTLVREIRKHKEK
Sequence of KRas^G13D (P01116 1-169 isoform P01116-2 G13D): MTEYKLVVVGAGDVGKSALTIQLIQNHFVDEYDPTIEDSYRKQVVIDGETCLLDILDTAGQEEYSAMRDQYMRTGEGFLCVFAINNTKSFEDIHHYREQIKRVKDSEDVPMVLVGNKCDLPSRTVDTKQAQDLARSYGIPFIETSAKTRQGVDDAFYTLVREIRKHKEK
Sequence of KRas^G12C (P01116 1-169 isoform P01116-2 G12C): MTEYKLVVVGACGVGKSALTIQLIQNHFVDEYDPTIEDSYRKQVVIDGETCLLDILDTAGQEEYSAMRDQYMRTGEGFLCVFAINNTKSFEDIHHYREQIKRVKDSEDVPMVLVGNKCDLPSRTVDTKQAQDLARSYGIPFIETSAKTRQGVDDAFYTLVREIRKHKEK
T6 sequence (P01116 1-169 isoform P01116-2 G12V): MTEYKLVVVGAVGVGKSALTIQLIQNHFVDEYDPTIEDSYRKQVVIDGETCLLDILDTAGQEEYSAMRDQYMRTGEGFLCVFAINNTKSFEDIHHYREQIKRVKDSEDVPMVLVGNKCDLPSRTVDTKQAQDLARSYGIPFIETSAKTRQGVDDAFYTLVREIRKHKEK
T4 sequence (P01116 1-169 isoform P01116-2 G12R): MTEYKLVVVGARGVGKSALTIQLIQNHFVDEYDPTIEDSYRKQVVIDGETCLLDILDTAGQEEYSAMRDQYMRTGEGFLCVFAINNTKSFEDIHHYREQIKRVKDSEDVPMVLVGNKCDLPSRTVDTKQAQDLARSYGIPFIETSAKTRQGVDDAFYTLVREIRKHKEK
T1 sequence (P01116 1-169 isoform P01116-2): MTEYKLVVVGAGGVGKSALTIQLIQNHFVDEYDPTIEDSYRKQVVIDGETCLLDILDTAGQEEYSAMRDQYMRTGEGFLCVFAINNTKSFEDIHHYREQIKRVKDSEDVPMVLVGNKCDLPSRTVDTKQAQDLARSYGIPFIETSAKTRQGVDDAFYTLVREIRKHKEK

IC50 (KRas^WT) [nM] | IC50 (KRas^G12A) [nM] | IC50 (KRas^G12D) [nM] | IC50 (KRas^G12R) [nM] | IC50 (KRas^G12S) [nM] | IC50 (KRas^G12V) [nM] | IC50 (KRas^G12C) [nM] | IC50 (KRas^G13D) [nM] | IC50 (KRas^Q61H) [nM] | SMILES
2210 | 2970 | 16000 | 760 | 2140 | 2410 | 1300 | 3220 | 2430 | CCc1cccc2cccc(N3CCc4c(nc(OCC56CCCN5CCC6)nc4N4CC(CO)OC5(CCC5)C4)C3)c12 (stereo not drawn) [Example 129, (8-(7-(8-ethylnaphthalen-1-yl)-2-((tetrahydro-1H-pyrrolizin-7a(5H)-yl)methoxy)-5,6,7,8-tetrahydropyrido[3,4-d]pyrimidin-4-yl)-5-oxa-8-azaspiro[3.5]nonan-6-yl)methanol]
543 | 452 | 1300 | 245 | 255 | 206 | 520 | 583 | 685 | CCc1cccc2cccc(N3CCc4c(nc(OCC56CCCN5CCC6)nc4N4CC5CC(O)CC4C5)C3)c12 (stereo not drawn) [Example 41, 6-(7-(8-ethylnaphthalen-1-yl)-2-((hexahydro-1H-pyrrolizin-7a-yl)methoxy)-5,6,7,8-tetrahydropyrido[3,4-d]pyrimidin-4-yl)-6-azabicyclo[3.2.1]octan-3-ol]
105 | 93 | 68 | 123 | 89 | 71 | 72 | 101 | 95 | CCc1cccc2cccc(N3CCc4c(nc(OCC56CCCN5CCC6)nc4N4CCOCC(C)(O)C4)C3)c12 (stereo not drawn) [Example 22, 4-(7-(8-ethylnaphthalen-1-yl)-2-((hexahydro-1H-pyrrolizin-7a-yl)methoxy)-5,6,7,8-tetrahydropyrido[3,4-d]pyrimidin-4-yl)-6-methyl-1,4-oxazepan-6-ol]
4750 | 2540 | 43000 | 1820 | 3350 | 1420 | 1850 | 6890 | 6310 | CCc1cccc2cccc(N3CCc4c(nc(OCC56CCCN5CCC6)nc4N4CC5(CNC(=O)N5)C4)C3)c12 [Example 149, 2-(7-(8-ethylnaphthalen-1-yl)-2-((tetrahydro-1H-pyrrolizin-7a(5H)-yl)methoxy)-5,6,7,8-tetrahydropyrido[3,4-d]pyrimidin-4-yl)-2,5,7-triazaspiro[3.4]octan-6-one]
1540 | 2070 | 2040 | 1360 | 1400 | 739 | 1150 | 1830 | 1750 | CCc1cccc2cccc(N3CCc4c(nc(OCC56CCCN5CCC6)nc4N(C)Cc4c[nH]nn4)C3)c12 [Example 127, N-((1H-1,2,3-triazol-4-yl)methyl)-7-(8-ethylnaphthalen-1-yl)-N-methyl-2-((tetrahydro-1H-pyrrolizin-7a(5H)-yl)methoxy)-5,6,7,8-tetrahydropyrido[3,4-d]pyrimidin-4-amine]
215 | 475 | 1110 | 470 | 505 | 403 | 482 | 176 | 228 | CCc1cccc2cccc(N3CCc4c(nc(OCC56CCCN5CCC6)nc4N4CCOCC(n5cncn5)C4)C3)c12 (stereo not drawn) [Example 88, 4-(7-(8-ethylnaphthalen-1-yl)-2-((tetrahydro-1H-pyrrolizin-7a(5H)-yl)methoxy)-5,6,7,8-tetrahydropyrido[3,4-d]pyrimidin-4-yl)-6-(1H-1,2,4-triazol-1-yl)-1,4-oxazepane]
1620 | 2950 | 8520 | 1640 | 2490 | 1260 | 2300 | 1200 | 1610 | CCc1cccc2cccc(N3CCc4c(nc(OCC56CCCN5CCC6)nc4N4CC[C@H]5C(=O)NC[C@H]5C4)C3)c12 [Example 141, (3aS,7aR)-5-(7-(8-ethylnaphthalen-1-yl)-2-((tetrahydro-1H-pyrrolizin-7a(5H)-yl)methoxy)-5,6,7,8-tetrahydropyrido[3,4-d]pyrimidin-4-yl)octahydro-1H-pyrrolo[3,4-c]pyridin-1-one]
1550 | 656 | 4090 | 381 | 975 | 948 | 485 | 1290 | 1600 | CCc1cccc2cccc(N3CCc4c(nc(OCC56CCCN5CCC6)nc4N4CCCC(c5n[nH]c(C6CC6)n5)C4)C3)c12 (stereo not drawn) [Example 108, 4-(3-(5-cyclopropyl-1H-1,2,4-triazol-3-yl)piperidin-1-yl)-7-(8-ethylnaphthalen-1-yl)-2-((tetrahydro-1H-pyrrolizin-7a(5H)-yl)methoxy)-5,6,7,8-tetrahydropyrido[3,4-d]pyrimidine]
8740 | 9260 | 4440 | 7650 | 6740 | 2560 | 4240 | 10000 | 11000 | CCc1cccc2cccc(N3CCc4c(nc(OCC56CCCN5CCC6)nc4NCCNS(N)(=O)=O)C3)c12 [Example 160, N-(2-((7-(8-ethylnaphthalen-1-yl)-2-((tetrahydro-1H-pyrrolizin-7a(5H)-yl)methoxy)-5,6,7,8-tetrahydropyrido[3,4-d]pyrimidin-4-yl)amino)ethyl)sulfamide]
894 | 548 | 2720 | 397 | 854 | 937 | 741 | 1180 | 1150 | CCc1cccc2cccc(N3CCc4c(nc(OCC56CCCN5CCC6)nc4N4CCCC(c5ncn[nH]5)C4)C3)c12 (stereo not drawn) [Example 53, 4-(3-(1H-1,2,4-triazol-5-yl)piperidin-1-yl)-7-(8-ethylnaphthalen-1-yl)-2-((hexahydro-1H-pyrrolizin-7a-yl)methoxy)-5,6,7,8-tetrahydropyrido[3,4-d]pyrimidine]
678 | 427 | 2620 | 234 | 698 | 701 | 256 | 1100 | 1240 | CCc1cccc2cccc(N3CCc4c(nc(OCC56CCCN5CCC6)nc4N4CCCC(c5n[nH]c(C)n5)C4)C3)c12 (stereo not drawn) [Example 93, 7-(8-ethylnaphthalen-1-yl)-4-(3-(5-methyl-1H-1,2,4-triazol-3-yl)piperidin-1-yl)-2-((tetrahydro-1H-pyrrolizin-7a(5H)-yl)methoxy)-5,6,7,8-tetrahydropyrido[3,4-d]pyrimidine]
959 | 427 | 7110 | 219 | 721 | 593 | 465 | 1130 | 929 | CCc1cccc2cccc(N3CCc4c(nc(OCC56CCCN5CCC6)nc4N4CCC(OCC(N)=O)CC4)C3)c12 [Example 89, 2-((1-(7-(8-ethylnaphthalen-1-yl)-2-((tetrahydro-1H-pyrrolizin-7a(5H)-yl)methoxy)-5,6,7,8-tetrahydropyrido[3,4-d]pyrimidin-4-yl)piperidin-4-yl)oxy)acetamide]
3610 | 4050 | 5400 | 4020 | 1160 | 3400 | 3560 | 3720 | 5330 | O=C1NC(=O)C2CN(c3nc(OCC45CCCN4CCC5)nc4c3CCN(c3cccc5cccc(F)c35)C4)CC12 (stereo not drawn) [Example 81, 5-(7-(8-fluoronaphthalen-1-yl)-2-((hexahydro-1H-pyrrolizin-7a-yl)methoxy)-5,6,7,8-tetrahydropyrido[3,4-d]pyrimidin-4-yl)tetrahydropyrrolo[3,4-c]pyrrole-1,3(2H,3aH)-dione]
171 | 169 | 67 | 74 | 101 | 81 | 81 | 375 | 291 | CCc1cccc2cccc(N3CCc4c(nc(OCC56CCCN5CCC6)nc4N4CCCn5nc(N)cc5C4)C3)c12 [Example 10, 5-(7-(8-ethylnaphthalen-1-yl)-2-((tetrahydro-1H-pyrrolizin-7a(5H)-yl)methoxy)-5,6,7,8-tetrahydropyrido[3,4-d]pyrimidin-4-yl)-5,6,7,8-tetrahydro-4H-pyrazolo[1,5-a][1,4]diazepin-2-amine]
2830 | 2670 | 4100 | 850 | 2420 | 2850 | 1930 | 2810 | 2850 | CCc1cccc2cccc(N3CCc4c(nc(OCC56CCCN5CCC6)nc4N4CCCC(c5ncc(C)s5)C4)C3)c12 (stereo not drawn) [Example 135, 2-(1-(7-(8-ethylnaphthalen-1-yl)-2-((tetrahydro-1H-pyrrolizin-7a(5H)-yl)methoxy)-5,6,7,8-tetrahydropyrido[3,4-d]pyrimidin-4-yl)piperidin-3-yl)-5-methylthiazole]
